These are literature values, as cited in US9434994B2, “Methods for prediction of clinical outcome to epidermal growth factor receptor inhibitors by non-small cell lung cancer patients” (The Regents of the University of Colorado, a body corporate, priority 2004, dated 2016).

This data set relates to advanced NSCLC patients. Particulars: cited from earlier work.
The mark [1] stands for this setting: unselected gefitinib treated NSCLC patients.

Regarding `COc1cc2ncnc(Nc3ccc(F)c(Cl)c3)c2cc1OCCCN1CCOCC1` [gefitinib], the stable disease rates entry (NSCLC patients treated with gefitinib) is “about 30%”. For the same molecule, for the setting “advanced disease progressing after standard therapies”, the “disease stabilization and symptomatic improvement” value is “about 40%”. Moreover, under setting [1], the Objective Response entry was “up to 18%” and the symptomatic improvement is on record as 40%.
